Assay results: US12098118B2 (Regents of the University of Minnesota, priority 2018, dated 2024)
Read-outs that look alike come from different tables or passages of the source.

Legend:
mice [1] = assay: development of chronic systemic morphine tolerance (s.c. morphine, warm water 52° C. tail flick test); assay type: in vivo; settings: for development of systemic morphine tolerance: systemic co-administration with morphine (FIGS. 7B-D)
Experimental: (§1) Doses were administered t.i.d. every 8 hours for 4 days. On day 6, four cumulative doses of morphine were given subcutaneously to assess tolerance in the warm water (52° C.) tail flick test.

mice [2] = assay: acute in vivo bioassay of spinal opioid analgesic tolerance (ENDO-2 pre-treatment, warm water immersion tail flick test)
Source text: To evaluate the effects of the compounds in opioid tolerance an acute in vivo bioassay of opioid analgesic tolerance was employed. In this instance, either a large dose of the mu opioid receptor selective neuropeptide ENDO-2 is given or vehicle. When the analgesic effects are no longer evident, a second analgesic dose of ENDO-2 is given. The second analgesic dose of ENDO-2 is effective in the group pre-treated with saline, but not in the group that was pre-treated with the large dose of ENDO-2. When agmatine or when one of the SSA is given together with the large pre-treatment dose of ENDO-2, the second analgesic dose of ENDO-2 is effective. In this bioassay, agmatine and most of the SSAs prevented the development of opioid tolerance.
Formula I compounds from Table 2 were evaluated for their impact on the development of opioid analgesic tolerance when dosed central (intrathecally) and systemically (intraperitoneally). […] When a high dose of ENDO-2 is intrathecally injected a subsequent analgesic dose is no longer effective (30 minutes later) (Stone et al., 1997). This is a model of opioid-induced analgesic tolerance.
When that second group received a second injection of ENDO-2 (same dose as in the SAL group), the analgesic effect was not observed. Analgesic tolerance to ENDO-2 was, therefore, induced. […] AG 4 nmol (third bar from left).

[3] = test system: mice with chronic pain induced by nerve-injury; assay: spinal nerve injury-induced neuropathic pain, von Frey monofilament tactile hypersensitivity; assay type: in vivo
[4] = cardiovascular measures / heart rate after i.v. injection; settings: in vivo
nerve-injured mice [5] = assay: rotarod assay of motor dysfunction and sedation; settings: for rotarod performance: intravenously administered, doses effective in nerve-injured mice, 30 minutes post-injection
female mice = assay: oral oxycodone self-administration model of opioid addiction (active vs control lever); assay type: in vivo
Experimental: FIGS. 6A and 6B show an in vivo model of opioid addiction in mice. […] Open symbols represent the lever pressing of mice on the “control” lever that result in no reward. Solid symbols represent the lever pressing of mice on the “active lever” which results in delivery of a 70 μL volume of oxycodone into a receptacle. The mice lick or drink the opioid from the receptacle.
Formula I compounds were assessed for similar effects in a model of oral oxycodone self-administration. […] Standard enclosed operant conditioning chambers modeled opioid addiction where in response to a light cue, mice have an opportunity to choose between one of two levers. Pressing one lever (the “Active” lever) results in delivery of a small quantity of oxycodone to a drinking receptacle where the mouse can lick or drink the fluid. Pressing the other lever (termed “Control” lever) results in no reward. In this experiment, female mice were separated into two groups; both groups were trained to lever press for oxycodone reward after pressing the “Active” lever of a two lever choice. Initially one lever press results in one delivery of opioid fluid. Pressing the “control” lever offers no reward. […] On day 15, they were required to press the active lever 3 times to seek the reward. […] The mice were given six injections over a period of 8 days. […] Responses were monitored from Day 20-40 of the experiment. […]

rats = settings: Morgan et al. 2002; cited from earlier work
nerve-injured mice [6] = settings: intrathecal, previously observed; cited from earlier work
[7] = in vivo
mice [8] = assay: development of central morphine tolerance (intrathecal morphine, warm water tail flick test); assay type: in vivo; settings: for ED50 (nmol, i.t.): tail flick day 4
Experimental: On day 4, four cumulative doses of morphine were given intrathecally to assess tolerance in the warm water tail flick test.
as §1

[9] = co-administered intrathecally (it) with tolerance-inducing ENDO-2 pre-treatment, agmatine 4 nmol
[10] = delivered systemically, 100 mg/kg ip, with intrathecal ENDO-2 pre-treatment
[11] = delivered systemically, ip, dose not given
[12] = IV, 0.45, 1.35, 4.5 micromoles/kg, induction and maintenance phase, ipsilateral hindpaw
[13] = morphine i.t. ED50 (interval in brackets) after pre-treatment Morphine (10 nmol, i.t.) + compound (10 nmol, i.t.) or VEH b.i.d. 3 days

Row | Structure (SMILES) | development of systemic morphine tolerance (mice [1]) | development of opioid analgesic tolerance to ENDO-2 (mice [2]; [9]) | development of opioid analgesic tolerance to ENDO-2 (mice [2]; [10]) | impact on cardiovascular measures [4] | development of opioid analgesic tolerance to ENDO-2 (mice [2]; [11]) | hindpaw withdrawal thresholds (von Frey) [3, 12] | rotarod performance (nerve-injured mice [5]) | also measured
1 | CCOC(=O)NCCCCNC(=N)N [J-2, ethyl (4-guanidinobutyl)carbamate] | reduces or prevents the development of systemic morphine tolerance | prevented the development of opioid analgesic tolerance | prevented the development of opioid analgesic tolerance |  |  |  |  | 
2 | CCOC(=O)/N=C(\NCCCCN)NC(=O)OCC.Cl [J-8, 4-(2,3-bis(ethoxycarbonyl)guanidino)butan-1-aminium chloride] |  | prevented the development of opioid analgesic tolerance |  | no impact | prevented the development of opioid analgesic tolerance |  |  | hindpaw withdrawal thresholds (von Frey) ([3]; IV, five doses 0.045, 0.0135, 0.45, 1.35, 4.5 micromoles/kg (approximately 1-100 mg/kg), induction phase): the hindpaw withdrawal thresholds elevated significantly toward control levels of responding in a dose-dependent manner; motor impairment (nerve-injured mice [5]; early side effects studies): no impact
3 | CCOC(=O)/N=C(\NCCCCNC(C)=O)NC(=O)OCC [J-3] |  | prevented the development of opioid analgesic tolerance |  | no impact on cardiovascular measures | prevented the development of opioid analgesic tolerance | the hindpaw withdrawal thresholds elevated toward control levels of responding | did not impact rotarod performance | response compared to the response of agmatine ([3]; IV, 0.45, 1.35, 4.5 micromoles/kg): No significant difference
4 | CC(=O)NCCCCN/C(=N\C(=O)OC(C)(C)C)NC(=O)OC(C)(C)C [J-4, 4-(2,3-bis(tert-butyloxycarbonyl)guanidino)butylacetamide] |  |  |  | no impact on cardiovascular measures | prevented the development of opioid analgesic tolerance | the hindpaw withdrawal thresholds elevated toward control levels of responding | did not impact rotarod performance | reduction of established neuropathic pain compared with agmatine at the same dose ([3]; IV, 1.35 micromoles/kg, maintenance phase for J-4 (FIG. 2F vs 2B)): distinctly greater than that of agmatine at the same dose; preference for active versus control lever (oxycodone) (female mice; intraperitoneal (IP) injection prior to session (FIG. 6B)): showed greatly reduced preference for the active versus the control lever; preference for active versus control lever (oxycodone) (female mice; intravenous injections, 30 mg/kg, six injections over 8 days): showed little preference for the lever after injections were initiated
5 | CCOC(=O)/N=C(/N)NCCCCNC(C)=O [J-6] |  | prevented the development of opioid analgesic tolerance | prevented the development of opioid analgesic tolerance |  |  |  |  | 
6 | N=C(N)NCCCCN [agmatine, 1-(4-aminobutyl)guanidine, reference compound] | reduces or prevents the development of systemic morphine tolerance | protected against the induction of opioid tolerance |  |  |  | the hindpaw withdrawal thresholds elevated toward control levels of responding | did not impact rotarod performance | heroin-induced self-administration (rats): diminishes heroin-induced self-administration in rats; rotarod performance (nerve-injured mice [6]): does not impact rotarod performance; impact on cardiovascular measures [7]: no impact on cardiovascular measures
7 | CC(=O)NCCCCNC(=N)N [J-5, N-(4-guanidinobutyl)acetamide] |  | prevented the development of opioid analgesic tolerance | prevented the development of opioid analgesic tolerance |  |  |  |  | 
8 | CCOC(=O)/N=C(/N)NCCCCNC(=O)OCC [J-1, ethyl (amino((4-((ethoxycarbonyl)amino)butyl)amino)methylene)carbamate] | reduces or prevents the development of systemic morphine tolerance |  |  |  |  |  |  | development of central morphine tolerance (mice [8]; intrathecal co-administration with morphine (FIG. 7A)): prevented the development of central morphine tolerance; ED50 (nmol, i.t.) (mice [8]; [13]): 2.86 (2.41, 3.40) nmol; ED50 (nmol, i.t.) (mice [8]; morphine i.t. ED50 (interval in brackets) after pre-treatment Saline + compound (10 nmol, i.t.) b.i.d. 3 days): 3.82 (2.95, 4.94) nmol; time to onset of effect compared to agmatine ([3]; mouse, in vivo): significantly earlier time to onset of effect; development of opioid analgesic tolerance to ENDO-2 (mice [2]; systemically, dose range of 1-30 mg/kg): did not prevent the development of opioid analgesic tolerance
9 | CCOC(=O)/N=C(/N)NCCCCN [J-7, 4-(2-(ethoxycarbonyl)guanidino) butan-1-aminium 2,2,2-trifluoroacetate] |  |  | prevented the development of opioid analgesic tolerance |  |  |  |  | development of opioid analgesic tolerance to ENDO-2 (mice [2]; systemically delivered, 10 mg/kg dose): prevented the development of opioid analgesic tolerance
10 | CN1CC[C@]23c4c5ccc(O)c4O[C@H]2[C@@H](O)C=C[C@H]3[C@H]1C5 [Morphine, morphine, reference compound] |  |  |  |  |  |  |  | ED50 (nmol, i.t.) (mice [8]; [13]): 10.84 (4.94, 23.82) nmol; ED50 (mice [1]; Mus musculus, sc, 144 h, morphine s.c. ED50 after pre-treatment Morphine (10 mg/kg, s.c.) + compound (3 mg/kg s.c.) or VEH t.i.d. 4 days, tail flick day 6, read-out: ED50 (95% CI) (mg/kg, s.c.)): 24.9 mg/kg
